Experimental data from article PMC11154717, “Evaluation of Novel Spiro-pyrrolopyridazine Derivatives as Anticancer Compounds: In Vitro Selective Cytotoxicity, Induction of Apoptosis, EGFR Inhibitory Activity, and Molecular Docking Analysis” (ACS Omega, 2024).
Like-named read-outs stand apart in the source and are kept apart here.

Tests used:
Bax = assay: Western blot, Bax protein level; type: cell-based, human
Method: (§1) For the extraction of total proteins, the M-PER Mammalian Protein Extraction Reagent from Thermo Fisher was utilized. Specifically, cells were treated with 250 μL of the extraction reagent and incubated at room temperature for 10 min with gentle shaking at 300 rpm. After this step, the cell suspension underwent centrifugation at 14,000g for 10 min, and the resulting supernatant was collected. Determination of the protein concentration was carried out using the Bradford method. Following this, protein separation was accomplished through SDS polyacrylamide gel electrophoresis, followed by transfer to nitrocellulose membranes. Post transfer, the membranes underwent blocking with 5% nonfat dry milk for 1 h and were subjected to three washes with Tris-buffered saline (TBS). Incubation with primary antibodies (Bcl-2: Anti-Bcl-2 antibody [ab196495, Abcam]; Bax: Anti-Bax antibody [ab216494, Abcam]; cytochrome c: Anticytochrome c antibody [ab4051]; EGFR: Anti-EGFR antibody [ab32077]) occurred overnight at 4 °C. β-Actin served as the loading control. After the washing steps, the membranes were exposed to secondary antibodies for 1 h at room temperature (1:1000 dilution). Visualization of protein bands was performed using the Kodak Gel Logic 1500 imaging system, and quantification was carried out using ImageJ software.[16]

cytochrome c = assay: Western blot, cytochrome c protein level; type: cell-based, human
Method: as §1

H69AR lung cancer cells [1] = assay: XTT cell viability assay, H69AR; type: cell-based, human
Method: (§2) Human breast cancer (MCF-7), human lung cancer (H69AR), and human prostate cancer (PC-3) human nontumorigenic HEK-293 cells were obtained from the Health Protection Agency (UK) and Interlab Cell Line Collection (ICLC, Italy). Cells were maintained in RPMI medium (Sigma) containing 10% heat-inactivated fetal bovine serum, 1% penicillin, and 1% L-glutamine in a 37° humidified CO2 incubator.
(§3) XTT (2,3-bis(2-methoxy-4-nitro-5-sulfophenyl)-2H-tetrazolium-5-carboxanilide) cell viability test was used to determine the cytotoxic activities of SPPs, which were dissolved in dimethyl sulfoxide (DMSO). Cells were seeded in 96-well plates at a density of 10^4/well and treated with increasing concentrations of SPP (1–250 μM) for 24, 48, and 72 h. After the incubation period, 100 μL of XTT was added to all experimental wells, and 96-well plates were incubated at 37 °C for 4 h. After the color change was observed, the absorbance values of the wells were recorded at 570 nm in the microplate reader (Tecan). The IC50 values for all synthesized compounds, representing the concentration needed to inhibit 50% of cancer cell proliferation, were determined using Biosoft CalcuSyn 2.1 software.[13] The following formula was used to calculate selectivity indexes (SIs), which represent the cytotoxic selectivity of SPPs against cancer cells and normal cells (HEK-293): […]

[2] = test system: MCF-7 breast cancer cells; assay: Annexin V/PI flow cytometric detection of apoptosis, MCF-7; type: cell-based, human; conditions: MCF-7, treated at IC50, 72 h
Description: (§4) During apoptosis, PS translocates from the inner to outer regions of the plasma membrane, making it a valuable marker for apoptosis identification. Annexin V specifically attaches to PS present on the surface of apoptotic cells. To differentiate between apoptotic and viable cells with intact membranes, a secondary dye such as […] (PI) is employed. By assessing fluorescence patterns, viable cells (annexin V- and PI-) and apoptotic cells (annexin V+ and PI+) can be distinguished, providing insights into their respective percentages. We used FITC Annexin V Apoptosis Detection Kit I (BD Pharmingen).[15] […] Subsequently, cells were washed with cold PBS, resuspended in […] of 1× Binding Buffer, and stained with 5 μL of Annexin V FITC and 5 μL of PI. After vortexing, the solution was incubated at room temperature (25 °C) for 15 min in the dark. At the end of the incubation, 400 μL of 1× Binding Buffer was added to each sample, and apoptosis was assessed using flow cytometry (BD Accuri C6 Flow Cytometer).

[3] = test system: PC-3 prostate cancer cells; assay: XTT cell viability assay, PC-3; type: cell-based, human
Method: as §2, §3

H69AR lung cancer cells [4] = assay: Annexin V/PI flow cytometric detection of apoptosis, H69AR; type: cell-based, human; conditions: treated at IC50, 72 h
Description: as §4

EGFRWT = assay: Western blot, EGFR protein; type: cell-based, human; conditions: 72 h, MCF-7, H69AR and PC-3 cells
Method: as §1

Bcl-2 = assay: Western blot, Bcl-2 protein level; type: cell-based, human
Method: as §1

EGFRT790M = EGFRT790M (Homo sapiens, UniProt P00533, T790M); assay: EGFRT790M kinase inhibitory assay (HTRF); type: biochemical; conditions: read-out: EGFRT790M kinase inhibition IC50
Sequence of EGFRT790M (P00533 25-1210 T790M): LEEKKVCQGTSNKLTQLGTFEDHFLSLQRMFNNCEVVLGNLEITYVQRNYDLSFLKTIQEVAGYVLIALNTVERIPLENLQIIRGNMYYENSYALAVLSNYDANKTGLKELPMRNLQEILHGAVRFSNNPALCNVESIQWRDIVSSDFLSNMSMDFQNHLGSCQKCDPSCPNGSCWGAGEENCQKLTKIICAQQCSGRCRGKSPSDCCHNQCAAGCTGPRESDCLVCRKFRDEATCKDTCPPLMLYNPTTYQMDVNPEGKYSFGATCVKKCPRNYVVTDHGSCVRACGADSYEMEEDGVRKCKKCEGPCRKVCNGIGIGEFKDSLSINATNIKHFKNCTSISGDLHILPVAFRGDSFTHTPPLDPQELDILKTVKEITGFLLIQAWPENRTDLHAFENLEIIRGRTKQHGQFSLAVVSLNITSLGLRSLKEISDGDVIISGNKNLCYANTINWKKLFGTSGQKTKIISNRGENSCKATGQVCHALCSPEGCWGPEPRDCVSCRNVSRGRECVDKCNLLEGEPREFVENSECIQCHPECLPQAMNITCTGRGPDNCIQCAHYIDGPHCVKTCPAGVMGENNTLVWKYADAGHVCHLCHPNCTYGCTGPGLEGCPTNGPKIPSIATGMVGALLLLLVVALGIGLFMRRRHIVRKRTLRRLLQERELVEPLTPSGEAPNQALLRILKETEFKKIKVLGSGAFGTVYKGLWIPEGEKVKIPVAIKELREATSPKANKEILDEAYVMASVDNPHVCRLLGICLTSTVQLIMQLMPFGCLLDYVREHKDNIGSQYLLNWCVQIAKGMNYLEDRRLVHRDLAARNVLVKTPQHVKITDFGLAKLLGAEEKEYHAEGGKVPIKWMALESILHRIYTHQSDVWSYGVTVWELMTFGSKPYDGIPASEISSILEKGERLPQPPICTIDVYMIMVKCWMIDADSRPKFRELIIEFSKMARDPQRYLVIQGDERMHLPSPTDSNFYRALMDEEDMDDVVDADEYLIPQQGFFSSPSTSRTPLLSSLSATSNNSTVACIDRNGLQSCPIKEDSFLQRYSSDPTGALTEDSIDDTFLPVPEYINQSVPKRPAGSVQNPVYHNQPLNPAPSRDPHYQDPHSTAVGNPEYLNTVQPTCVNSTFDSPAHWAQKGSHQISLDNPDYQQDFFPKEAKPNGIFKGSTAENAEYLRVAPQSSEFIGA
Method: (§5) The inhibitory effects of the target compounds on various EGFR kinases were evaluated through a well-established homogeneous time-resolved fluorescence (HTRF) method-based assay, utilizing the HTRF KinEASE-TK kit (cat #62TK0PEC, Cisbio).[17] SPP10 underwent screening at progressively diluted concentrations in the presence of 1% dimethyl sulfoxide (DMSO), preceded by a 5 min preincubation of the kinase and compounds. Initiation of all reactions occurred by adding ATP and TK-substrate-biotin, followed by a 60 min incubation at room temperature and subsequent quenching with a stop buffer containing 62.5 nM Strep-XL665 and TK antibody (Ab)-Cryptate. Following a 1 h plate incubation, readings were taken on a microplate reader using standard HTRF settings. IC50 values were determined using GraphPad Prism 5.0 software. Each reaction was carried out in duplicate, and a minimum of three independent determinations were performed. The data were analyzed using GraphPad Prism.

EGFR = EGFR (Homo sapiens, UniProt P00533); assay: EGFR kinase inhibitory assay (HTRF); type: biochemical; conditions: read-out: EGFR kinase inhibition IC50
Sequence of EGFR (P00533 25-1210): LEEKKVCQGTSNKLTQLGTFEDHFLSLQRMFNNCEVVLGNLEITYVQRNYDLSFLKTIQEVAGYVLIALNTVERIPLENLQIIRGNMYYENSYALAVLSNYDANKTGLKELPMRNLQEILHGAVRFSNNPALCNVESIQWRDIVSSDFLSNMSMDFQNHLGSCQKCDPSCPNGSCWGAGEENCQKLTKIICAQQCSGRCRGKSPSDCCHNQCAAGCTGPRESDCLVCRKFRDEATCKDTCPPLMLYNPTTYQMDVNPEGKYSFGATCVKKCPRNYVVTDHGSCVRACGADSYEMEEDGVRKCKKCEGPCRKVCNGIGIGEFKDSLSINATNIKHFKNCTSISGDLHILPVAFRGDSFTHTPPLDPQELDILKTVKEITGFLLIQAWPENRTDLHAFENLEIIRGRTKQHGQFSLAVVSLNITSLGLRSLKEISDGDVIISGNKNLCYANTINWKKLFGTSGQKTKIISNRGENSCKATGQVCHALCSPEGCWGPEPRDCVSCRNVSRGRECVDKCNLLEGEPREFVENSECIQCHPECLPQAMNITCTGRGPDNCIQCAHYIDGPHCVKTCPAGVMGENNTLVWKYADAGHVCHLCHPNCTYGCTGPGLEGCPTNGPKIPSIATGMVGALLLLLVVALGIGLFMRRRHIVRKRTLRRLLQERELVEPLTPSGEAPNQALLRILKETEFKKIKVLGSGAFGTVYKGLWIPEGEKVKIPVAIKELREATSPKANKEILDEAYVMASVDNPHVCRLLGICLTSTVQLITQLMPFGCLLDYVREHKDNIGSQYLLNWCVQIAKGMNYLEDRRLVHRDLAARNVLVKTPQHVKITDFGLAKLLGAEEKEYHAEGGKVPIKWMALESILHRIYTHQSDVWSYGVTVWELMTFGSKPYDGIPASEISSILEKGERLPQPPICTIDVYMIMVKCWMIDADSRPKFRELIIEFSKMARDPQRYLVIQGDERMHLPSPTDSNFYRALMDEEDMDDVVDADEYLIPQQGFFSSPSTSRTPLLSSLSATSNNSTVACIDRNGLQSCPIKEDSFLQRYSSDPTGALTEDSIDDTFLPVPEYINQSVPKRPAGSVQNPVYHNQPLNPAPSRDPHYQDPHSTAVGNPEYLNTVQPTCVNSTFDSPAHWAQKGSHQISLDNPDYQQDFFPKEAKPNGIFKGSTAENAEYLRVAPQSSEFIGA
Method: as §5, with “Initiation of all reactions occurred by adding ATP and TK-substrate-biotin, followed by a 60 min incubation at room temperature and subsequent quenching with a stop buffer containing 62.5 nM Strep-XL665 and TK antibody (Ab)-Cryptate.” left out

[5] = test system: MCF-7 breast cancer cells; assay: XTT cell viability assay, MCF-7; type: cell-based, human
Method: as §2, §3

[6] = test system: nontumorigenic HEK-293 cells; assay: XTT cell viability assay, HEK-293; type: cell-based, human; conditions: Homo sapiens, HEK293, 72 h
Method: as §2, §3

[7] = test system: PC-3 prostate cancer cells; assay: Annexin V/PI flow cytometric detection of apoptosis, PC-3; type: cell-based, human; conditions: PC-3, treated at IC50, 72 h
Description: as §4

SMILES: c1ccc(-c2nnc(-c3ccccc3)c3c2C(c2ccsc2)=NC32CCCCC2)cc1 [SPP10]
- Bax protein level induced by (Bax; H69AR, IC50 of SPP10, 72 h): 4.1 fold
- Bax protein level induced by (Bax; MCF-7, IC50 of SPP10, 72 h): 3.4 fold
- Bax protein level induced by (Bax; PC-3, IC50 of SPP10, 72 h): 5.2 fold
- Cytochrome c level induced by (cytochrome c; H69AR, IC50 of SPP10, 72 h): 3.6 fold
- Cytochrome c level induced by (cytochrome c; MCF-7, IC50 of SPP10, 72 h): 3.8 fold
- Cytochrome c level induced by (cytochrome c; PC-3, IC50 of SPP10, 72 h): 4.4 fold
- IC50 (H69AR lung cancer cells [1]; Homo sapiens, H69AR, XTT, 72 h): 3160 ± 800 nM
- selectivity index (SI) H69AR (H69AR lung cancer cells [1]; versus HEK-293): 8.48
- percentage of early apoptotic cells [2]: 28.7%
- percentage of late apoptotic cells [2]: 59.3%
- IC50 ([3]; Homo sapiens, XTT, 72 h): 4200 ± 200 nM
- selectivity index (SI) PC-3 ([3]; versus HEK-293): 6.38
- percentage of early apoptotic cells (H69AR lung cancer cells [4]): 25.6%
- percentage of late apoptotic cells (H69AR lung cancer cells [4]): 61.2%
- inhibition of EGFRWT protein (western blot) (EGFRWT): concentration-dependent inhibition
- Bcl-2 protein level inhibited by (Bcl-2; H69AR, IC50 of SPP10, 72 h): 2.6 fold
- Bcl-2 protein level inhibited by (Bcl-2; MCF-7, IC50 of SPP10, 72 h): 2.3 fold
- Bcl-2 protein level inhibited by (Bcl-2; PC-3, IC50 of SPP10, 72 h): 3.2 fold
- IC50 (EGFRT790M; in H69AR cells): 250 ± 700 nM
- IC50 (EGFRT790M; in MCF-7 cells): 370 ± 200 nM
- IC50 (EGFRT790M; in PC-3 cells): 390 ± 200 nM
- IC50 (EGFR; in H69AR cells): 200 nM
- IC50 (EGFR; in MCF-7 cells): 400 ± 120 nM
- IC50 (EGFR; in PC-3 cells): 420 ± 800 nM
- IC50 (EGFR; span in cancer cells): 200 to 420 nM
- IC50 ([5]; Homo sapiens, MCF7, XTT, 72 h): 2310 ± 300 nM
- selectivity index (SI) MCF-7 ([5]; versus HEK-293): 11.6
- IC50 [6]: 26800 ± 400 nM
- percentage of early apoptotic cells [7]: 21.8%
- percentage of late apoptotic cells [7]: 64.9%
